Results as given in US7285546B2, “Cephalotaxanes, their method of preparation and their use in treatment of cancers, leukemias, parasites including those resistant to usual chemotherapeutic agents and as reversal agents” (Stragen Pharma S.A., priority 2000, dated 2007).
Converted amounts (≈) assume the structure as drawn. Where two headings read alike, the source gives them in different places.

Columns and labels:
K562 cell line = experiment: MTT test of structural analogues of harringtonines on K562 cell line; format: cell-based
Method: (§1) Structural analogues of harringtonines described in this invention were tested on K562 cell line, derived from chronic myeloid leukemia cells in blastic transformation (bcr-abl positive). The cell line was purchased from ATCC (American Tissue Culture Collection) and grown in RPMI medium supplemented with 10% heat-inactivated fetal calf serum, 2 mmol/L glutamine, […] penicillin and […] streptomycin. All tested products were initially dissolved in […] (pH=2), supplemented with ultrasound treatment during 1 h. Working concentrations were made by dilution in culture medium (pH around 7). Cells in exponential growth phase were placed into 96-microwell plates in concentration 3×10^4/mL (total volume 200 μL/well) and incubated with drugs for 72 h at 37° C. in 5% CO2 humidified atmosphere. Following incubation, 2 μL of MTT solution (Sigma, St. Louis, Mo.) was added to each well. During the following 6 h of incubation at 37° C., the purple formazan product was formed by conversion of the yellow MTT salt in the mitochondria of the viable cells. The resulting precipitate was dissolved in DMSO and the amount of converted MTT was quantified in an ELISA reader (MR 5000, Dynatech). Each product was tested in triplicate (3×8 wells). Every test contained at least one plate with HHT as control, added in the same concentration as the tested products.

K562MRP = experiment: MTT test on K562MRP, homoharringtonine-resistant subline of K562; format: cell-based; details: K562MRP subline resistant to 50 ng/mL homoharringtonine, same method as K562
Method: as §1

[1] = Homo sapiens, K562 cell line, 72 h incubation, MTT, read-out: IC50

| Compound | IC50 (K562 cell line; Homo sapiens, K562, 72 h) [µg/mL] | also measured |
| --- | --- | --- |
| CC=CC=CCOC(=O)C[C@](O)(CCCC(C)(C)O)C(=O)O[C@@H]1C(OC)=C[C@]23CCCN2CCc2cc4c(cc2[C@H]13)OCO4 [Example 43, (2′R)-4′-(hexa-2,4-dienyl)-4′-demethyl-homoharringtonine] |  | IC50 (K562 cell line; K562 cell line, 72 h incubation, MTT): 0.0035 µg/mL (≈ 0.00572 µM); IC50 (K562MRP): 16 ng/mL (≈ 0.0262 µM) |
| COC1=C[C@@]23CCCN2CCc2cc4c(cc2[C@@H]3C1OC(=O)[C@@](O)(CCCC(C)(C)O)CC(=O)OCc1ccco1)OCO4 (stereo partly drawn) [Example 83, (2′R)-4′-furfuryl-4′-demethyl-homoharringtonine] | 0.003 (≈ 0.0049 µM) |  |
| CCCCCCOC(=O)C[C@](O)(CCC(C)C)C(=O)OC1C(OC)=C[C@@]23CCCN2CCc2cc4c(cc2[C@H]13)OCO4 (stereo partly shown) [Example 84, (2′ R)-4′-hexanyloxy-4′-demethyldeoxyharringtonine] | 0.007 (≈ 0.012 µM) |  |
| COC1=C[C@@]23CCCN2CCc2cc4c(cc2[C@@H]3C1OC(=O)[C@@](O)(CCCC(C)(C)O)CC(=O)OCc1ccc([N+](=O)[O-])cc1)OCO4 (stereo partly drawn) [Example 85, (2′R)-4′-p-nitrobenzyloxy-4′-demethyl-homoharringtonine] | 0.018 (≈ 0.027 µM) |  |
| COC1=C[C@@]23CCCN2CCc2cc4c(cc2[C@@H]3C1OC(=O)[C@@](O)(CCCC(C)(C)O)CC(=O)OCc1ccc(OC)cc1)OCO4 (stereo partly drawn) [Example 86, (2′R)-4′-p-methoxybenzyloxy-4′-demethyl-homoharringtonine] | 0.02 (≈ 0.0307 µM) |  |
| [2H]C([2H])OC(=O)C[C@](O)(CCCC(C)(C)O)C(=O)OC1C(OC)=C[C@@]23CCCN2CCc2cc4c(cc2[C@H]13)OCO4 (stereo partly drawn) [Example 87, (2′R)-(4′-^2H2)homoharringtonine] |  | IC50 (K562 cell line; [1]): 0.021 µg/mL (≈ 0.0383 µM) |
| COC1=C[C@@]23CCCN2CCc2cc4c(cc2[C@@H]3C1OC(=O)[C@@](O)(CCCC(C)(C)O)CC(=O)OCc1ccccc1OC)OCO4 (stereo partly drawn) [Example 90, (2′R)-4′-o-methoxybenzyloxy-4′-demethyl-homoharringtonine] | 0.027 (≈ 0.0414 µM) |  |
| COC(=O)C[C@](O)(CCC(C)(C)O)C(=O)O[C@@H]1C(OC)=C[C@]23CCCN2CCc2cc4c(cc2[C@H]13)OCO4 [HARRINGTONINE (HHT), harringtonine, reference compound] | 0.03 (≈ 0.0564 µM) |  |
| COC(=O)C[C@](O)(CCCC(C)(C)O)C(=O)O[C@@H]1C(OC)=C[C@]23CCCN2CCc2cc4c(cc2[C@H]13)OCO4 [HOMOHARRINGTONINE, homoharringtonine, reference compound] |  | IC50 (K562 cell line; [1]): 0.014 µg/mL (≈ 0.0257 µM) |
